What was measured:
BRD3 (His-Brd3(20-477)) = BRD3 (His-Brd3(20-477)) (Homo sapiens (Human), UniProt Q15059); experiment: TR-FRET in-vitro binding assay for BRD3; conditions: single determination or n ≧ 2 independent determinations, read-out: Biochemical IC50 BRD3
Description: (§1) TR-FRET In-Vitro Binding Assays for BRD2, BRD3, and BRD4:
(§2) All assays were performed in 384 well microtiter plates. Each assay plate contained 8-point serial dilutions for 40 test compounds, plus 16 high- and 16 low controls. Liquid handling and incubation steps were done on an Innovadyne Nanodrop Express equipped with a robotic arm (Thermo CatX, Perkin Elmer/Caliper Twister II) and an incubator (Liconic STX40, Thermo Cytomat 2C450). The assay plates were prepared by addition of 50 nl per well of compound solution in 90% DMSO HummingBird nanodispenser (Zinsser Analytic). […] Reactions were incubated at 30° C. for 35 minutes. […] After 35 minutes incubation at 30° C., plates were measured in a Perkin Elmer EnVision multilabel reader.
(§3) Preparation of Compound Dilutions
(§4) Test compounds were dissolved in DMSO (10 mM) and transferred into 1.4 mL flat bottom or V-shaped Matrix tubes carrying a unique 2D matrix. The stock solutions were stored at […] if not used immediately. For the test procedure the vials were defrosted and identified by a scanner whereby a working sheet was generated that guided the subsequent working steps.
(§5) Compound dilutions were made in 96 well plates. This format enabled the assay of maximally 40 individual test compounds at 8 concentrations (single points) including 4 reference compounds, if desired (known BET inhibitors from the prior art, for this and other assays of the type disclosed herein). The dilution protocol included the production of “pre-dilution plates”, “master plates” and “assay plates”.
(§6) Pre-Dilution Plates: 96 polypropylene well plates were used as pre-dilution plates. A total of 4 pre-dilution plates were prepared including 10 test compounds each on the plate positions A1-A10, one standard compound at A11 and one DMSO control at A12. All dilution steps were done on a HamiltonSTAR robot.
(§7) These plates were used directly for the assay which was performed in a total volume of 13.55 μL.

[1] = target: CREBBP bromodomain (His-CREBBP(1081-1197)) (Homo sapiens (Human), UniProt Q92793); experiment: AlphaScreen in-vitro binding assay for CREBBP; conditions: single determination or n ≧ 2 independent determinations, read-out: Biochemical IC50 CREBBP
Chain of CREBBP bromodomain (His-CREBBP(1081-1197)) (Q92793 1081-1197): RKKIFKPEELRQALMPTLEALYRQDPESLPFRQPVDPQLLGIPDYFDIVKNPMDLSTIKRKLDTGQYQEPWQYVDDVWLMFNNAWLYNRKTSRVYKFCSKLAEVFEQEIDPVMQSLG
Description: AlphaScreen In-Vitro Binding Assay for CREBBP
In order to assess bromodomain selectivity, we set up a binding assay using the bromodomain encoded by the CREBBP gene. […] Reactions were incubated at 30° C. for 35 minutes. Subsequently 4.5 μl per well detection mix (50 mM HEPES, pH 7.5, 0.005% Tween20, 0.02% BSA, 150 mM NaCl, 45 μg/ml Ni-chelate acceptor beads, 45 μg/mIstreptavidin-donor beads) (Perkin Elmer)) were added. After 60 minutes incubation at room temperature, plates were measured in a Perkin Elmer EnVision multilabel reader. IC50 values were determined from percent inhibition values at different compound concentrations by non-linear regression analysis.
as §3, §4, §5, §6, §7

BRD4 (His-Brd4(44-477)) = BRD4 (His-Brd4(44-477)) (Homo sapiens (Human), UniProt O60885); experiment: TR-FRET in-vitro binding assay for BRD4; conditions: single determination or n ≧ 2 independent determinations, read-out: Biochemical IC50 BRD4
Description: as §1, §2, §3, §4, §5, §6, §7

MV-4-11 cells = experiment: Cell growth inhibition assay (CellTiter-Glo), MV-4-11; conditions: for GI50: Homo sapiens, MV4-11, read-out: MV-4-11 GI50; for MV-4-11 TGI: MV-4-11 cells, total growth inhibition, CellTiter-Glo;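 as to all read-outs here: cellular ATP luminescence after 4 days, 3-fold dilution series from 10 µM top dose, vehicle (0.1% DMSO) set to 100%, cell-free medium set to −100%, day 0 corrected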
K-562 cells = experiment: Cell growth inhibition assay (CellTiter-Glo), K-562; conditions: for GI50: Homo sapiens, K562, read-out: K-562 GI50; for K-562 TGI: K-562 cells, total growth inhibition, CellTiter-Glo;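 as to all read-outs here: cellular ATP measured by luminescence after 4 days of exposure, 3-fold dilution series from 10 µM, DMSO vehicle-treated cells define 100%, cell-free medium wells −100%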
THP-1 cells = experiment: Cell growth inhibition assay (CellTiter-Glo), THP-1; conditions: for GI50: Homo sapiens, THP-1, read-out: THP-1 GI50; for THP-1 TGI: THP-1 cells, total growth inhibition, CellTiter-Glo;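 as to all read-outs here: viability read as cellular ATP luminescence after 4 days, 3-fold dilution series from 10 µM, DMSO vehicle-treated cells taken as 100%, cell-free medium wells as −100%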

Chain of BRD3 (His-Brd3(20-477)) (Q15059 20-477): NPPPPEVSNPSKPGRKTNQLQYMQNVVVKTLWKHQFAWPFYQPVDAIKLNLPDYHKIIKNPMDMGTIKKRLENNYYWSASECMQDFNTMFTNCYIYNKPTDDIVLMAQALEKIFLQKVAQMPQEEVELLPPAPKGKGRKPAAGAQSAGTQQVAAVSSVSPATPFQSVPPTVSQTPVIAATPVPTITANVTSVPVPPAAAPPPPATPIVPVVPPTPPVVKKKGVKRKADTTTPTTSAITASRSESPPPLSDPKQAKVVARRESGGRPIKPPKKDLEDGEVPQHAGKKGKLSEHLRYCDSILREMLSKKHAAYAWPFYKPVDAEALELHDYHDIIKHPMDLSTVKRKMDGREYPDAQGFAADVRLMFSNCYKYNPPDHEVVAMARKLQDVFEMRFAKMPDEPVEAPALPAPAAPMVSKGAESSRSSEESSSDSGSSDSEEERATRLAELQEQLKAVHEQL

| Structure (SMILES) | IC50 (BRD3 (His-Brd3(20-477))) [nM] | IC50 [1] [nM] | IC50 (BRD4 (His-Brd4(44-477))) [nM] | GI50 (MV-4-11 cells) [nM] | MV-4-11 TGI (MV-4-11 cells) [nM] | GI50 (K-562 cells) [nM] | K-562 TGI (K-562 cells) [nM] | GI50 (THP-1 cells) [nM] | THP-1 TGI (THP-1 cells) [nM] |
| --- | --- | --- | --- | --- | --- | --- | --- | --- | --- |
| Cc1cc(N2C(=O)c3nc(C4=CCOCC4)n(C(C)C)c3C2c2ccc(Cl)cc2)nc2c1nnn2C (centres unmarked) [Example 160, 6-(4-chlorophenyl)-2-(3,6-dihydro-2H-pyran-4-yl)-5-(3,7-dimethyl-3H-[1,2,3]triazolo[4,5-b]pyridin-5-yl)-1-isopropyl-5,6-dihydropyrrolo[3,4-d]imidazol-4(1H)-one] | < 11 | > 37000 | < 11 | 5.95 | 4.973 | 25.8 | >7000 | 4.6 | 6.383 |
| COc1ncccc1-c1nc2c(n1C(C)C)C(c1ccc(Cl)cc1)N(c1cc(C)c3nnn(C)c3n1)C2=O (centres unmarked) [Example 157, 6-(4-chlorophenyl)-5-(3,7-dimethyl-3H-[1,2,3]triazolo[4,5-b]pyridin-5-yl)-1-isopropyl-2-(2-methoxypyridin-3-yl)-5,6-dihydropyrrolo[3,4-d]imidazol-4(1H)-one] | – | – | – | 10.6 | 15.15 | 56.8 | >10000 | 8.82 | 24.75 |
| Cc1cc(N2C(=O)c3nc(C4CCOC4)n(C(C)C)c3C2c2ccc(Cl)cc2)nn2c(C)nnc12 (centres unmarked) [Example 170, 6-(4-chlorophenyl)-5-(3,8-dimethyl-[1,2,4]triazolo[4,3-b]pyridazin-6-yl)-1-isopropyl-2-(tetrahydrofuran-3-yl)-5,6-dihydropyrrolo[3,4-d]imidazol-4(1H)-one] | 43 | > 37000 | 31 | – | – | – | – | – | – |
| Cc1cc(N2C(=O)c3nc(C4CCOC4)n(C(C)C)c3[C@H]2c2ccc(Cl)cc2)nn2c(C)nnc12 (stereo partly drawn) [Example 171, (6R)-6-(4-chlorophenyl)-5-(3,8-dimethyl-[1,2,4]triazolo[4,3-b]pyridazin-6-yl)-1-isopropyl-2-(tetrahydrofuran-3-yl)-5,6-dihydropyrrolo[3,4-d]imidazol-4(1H)-one] | < 11 | 17800 | 12 | – | – | – | – | – | – |
| Cc1cc(N2C(=O)c3nc(C4CCOC4)n(C(C)C)c3C2c2ccc(Cl)cc2)cc2c1nnn2C (centres unmarked) [Example 99, 6-(4-chlorophenyl)-5-(1,4-dimethyl-1H-benzo[d][1,2,3]triazol-6-yl)-1-isopropyl-2-(tetrahydrofuran-3-yl)-5,6-dihydropyrrolo[3,4-d]imidazol-4(1H)-one] | 18 | 960 | 16 | – | – | – | – | – | – |
| Cc1nc2c([nH]1)C(c1ccc(Cl)cc1)N(c1cc(C)c3nnn(C)c3c1)C2=O (centres unmarked) [Example 1, 6-(4-chlorophenyl)-5-(3,7-dimethyl-3H-benzo[d][1,2,3]triazol-5-yl)-2-methyl-5,6-dihydropyrrolo[3,4-d]imidazol-4(1H)-one] | – | – | – | 26.3 | 52.35 | 160 | >10000 | 38.4 | 79.9 |
| COc1cc(F)ccc1-c1nc2c([nH]1)C(c1ccc(Cl)cc1)N(c1cc(C)c3nnc(C)n3c1)C2=O (centres unmarked) [Example 137] | 89 | – | 84.5 | 90.2 | 124.5 | 254 | >10000 | 101 | 213 |
| COc1ccc(-c2nc3c([nH]2)C(c2ccc(Cl)cc2)N(c2cc(C)c4nnc(C)n4c2)C3=O)cn1 (centres unmarked) [Example 117, 6-(4-chlorophenyl)-5-(3,8-dimethyl-[1,2,4]triazolo[4,3-a]pyridin-6-yl)-2-(6-methoxypyridin-3-yl)-5,6-dihydropyrrolo[3,4-d]imidazol-4(1H)-one] | – | – | – | 69.5 | 112 | 207 | >10000 | 81 | 129 |
